Test results from patent publication US9185910B2, “Amide compound” (Sumitomo Chemical Company, Limited, priority 2012, dated 2015).

Experiments:
[1] = system: Haemaphysalis longicornis; experiment: Test Example 11: coated screw tube contact test, Haemaphysalis longicornis ticks; assay type: in vivo; conditions: 2 mg compound coated on inner wall of screw tube, non-blood-sucking nymphal ticks, after 2 days
Protocol: 2 mg of each of Compounds of Present Invention 7, 20, 25, 28, 48, 55, 65 and 110 was weighed in a screw tube (Maruemu No. 5; 27×55 mm), and 0.2 mL of acetone was added thereto and sealed with a cap to dissolve the compound. The screw tube was rotated and inverted to uniformity coat the drug solution onto the whole inner wall of the tube. After removing the cap, the solution was air-dried for about 2 hours, then non-blood-sucking nymphal ticks, Haemaphysalis longicornis (5 ticks/group) were released, and the tube was sealed with the cap. After 2 days, the number of dead ticks was examined, and the death rate was calculated according to the following equation: Death rate (%)=100×(Number of dead ticks/Number of tested ticks).

Musca domestica = experiment: Test Example 8: filter paper with sucrose bait, Musca domestica; assay type: in vivo; conditions: 500 ppm, 0.7 ml on filter paper, female imagoes, after 24 hours
Protocol: The formulations of Compounds of Present Invention 31, 41, 55, 62, 64 to 65, 67 to 70, 73 to 75, 88, 119, 124 and 131 as obtained in Formulation Example 5 were diluted with water, so as to have a concentration of the active ingredient of 500 ppm, to prepare a test drug solution.
A filter paper having a diameter of 5.5 cm was spread on the bottom of a polyethylene cup having the same diameter and 0.7 ml of the test drug solution was added dropwise onto the filter paper, and 30 mg of sucrose was uniformly placed as bait. Into the polyethylene cup, 10 female imagoes of Musca domestica were released, and the cup was sealed with a lid. After 24 hours, the life and death of Musca domestica was examined, and the death rate was calculated. Death rate (%)=(Number of dead insects/Number of tested insects)×100

Row | SMILES | Death rate (%) [1] [%] | Death rate (%) (Musca domestica)
1 | CCSc1cccnc1C(=O)Nc1ccc(C(F)(F)F)nc1 [compound 20] | 100 | –
2 | CCSc1cccnc1C(=O)N(C)c1ccc(I)cn1 [compound 70] | – | 100
3 | CCSc1cccnc1C(=O)N(C)c1ccc(C(F)(F)C(F)(F)F)c(Cl)n1 [compound 110] | 100 | –
4 | CCS(=O)(=O)c1cc(NC(=O)OC)cnc1C(=O)N(C)c1ccc(SC(F)(F)F)cc1 [compound 119] | – | 100
5 | CCSc1cc(Cl)cnc1C(=O)N(C)c1ccc(C(F)(F)F)cc1 [compound 131] | – | 100
